Laboratory results: ChEMBL document CHEMBL1909046, “DrugMatrix in vitro pharmacology data”

Columns and labels:
D(4) dopamine receptor = target: T1, D(4) dopamine receptor (Homo sapiens, UniProt P21917); experiment: DRUGMATRIX: Dopamine D4.2 radioligand binding (ligand: [3H] Spiperone); type: cell membranes, CHO-K1, Membrane; settings: Not Active = under 50% inhibition at 10 µM
T1 sequence (P21917 whole entry): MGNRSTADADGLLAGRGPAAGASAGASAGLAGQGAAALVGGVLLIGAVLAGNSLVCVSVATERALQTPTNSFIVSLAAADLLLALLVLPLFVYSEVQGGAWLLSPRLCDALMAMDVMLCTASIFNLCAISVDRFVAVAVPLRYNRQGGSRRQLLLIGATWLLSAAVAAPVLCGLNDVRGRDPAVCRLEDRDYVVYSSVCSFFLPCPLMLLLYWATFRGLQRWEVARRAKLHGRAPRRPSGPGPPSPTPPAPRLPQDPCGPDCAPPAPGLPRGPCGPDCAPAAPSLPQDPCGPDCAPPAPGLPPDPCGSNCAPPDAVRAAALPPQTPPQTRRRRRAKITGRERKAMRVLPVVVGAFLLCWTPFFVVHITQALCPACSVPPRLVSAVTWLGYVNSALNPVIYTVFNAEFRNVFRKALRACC

[1] = target: T2, Neuropeptide Y receptor type 1 (Homo sapiens, UniProt P25929); type: cell membranes, Membrane; settings: sk-n-mc; further: in other assays of this panel Not Active means under 50% inhibition at 10 µM
T2 sequence (P25929 whole entry): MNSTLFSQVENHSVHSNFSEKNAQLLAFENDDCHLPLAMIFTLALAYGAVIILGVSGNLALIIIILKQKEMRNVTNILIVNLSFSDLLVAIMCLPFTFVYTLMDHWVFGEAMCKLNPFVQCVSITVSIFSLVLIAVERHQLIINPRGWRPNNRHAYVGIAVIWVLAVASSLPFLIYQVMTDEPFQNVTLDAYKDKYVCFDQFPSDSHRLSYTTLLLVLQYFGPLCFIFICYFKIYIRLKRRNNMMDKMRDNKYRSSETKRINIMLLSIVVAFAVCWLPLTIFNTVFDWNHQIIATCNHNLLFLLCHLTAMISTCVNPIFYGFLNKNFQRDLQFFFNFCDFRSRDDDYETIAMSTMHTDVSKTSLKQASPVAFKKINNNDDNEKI

Cytochrome P450 2C9 = Cytochrome P450 2C9 (Homo sapiens, UniProt P11712); settings: bti-tn-5b1-4; further: in other assays of this panel Not Active means under 50% inhibition at 10 µM
Sequence of Cytochrome P450 2C9 (P11712 whole entry): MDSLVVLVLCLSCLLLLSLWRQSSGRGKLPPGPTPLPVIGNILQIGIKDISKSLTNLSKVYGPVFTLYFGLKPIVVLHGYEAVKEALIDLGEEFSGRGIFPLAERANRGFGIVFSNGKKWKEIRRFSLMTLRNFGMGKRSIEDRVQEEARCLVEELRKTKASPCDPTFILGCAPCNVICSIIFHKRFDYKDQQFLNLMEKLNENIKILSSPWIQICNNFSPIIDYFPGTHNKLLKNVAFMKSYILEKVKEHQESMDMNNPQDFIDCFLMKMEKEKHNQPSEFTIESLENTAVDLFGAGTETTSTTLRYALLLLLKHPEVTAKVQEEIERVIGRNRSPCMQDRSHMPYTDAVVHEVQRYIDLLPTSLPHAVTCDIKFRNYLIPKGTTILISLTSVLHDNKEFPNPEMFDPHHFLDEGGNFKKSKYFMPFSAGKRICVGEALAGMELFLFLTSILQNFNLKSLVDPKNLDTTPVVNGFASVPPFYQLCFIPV

Glycine receptor = Glycine receptor (Rattus norvegicus, UniProt P22771+P24524+P07727+P20781); type: cell membranes, Wistar, Spinal cord, Membrane; further: in other assays of this panel Not Active means under 50% inhibition at 10 µM
[2] = target: 5-hydroxytryptamine receptor 1B (Rattus norvegicus, UniProt P28564); type: cell membranes, Wistar, Cerebral cortex, Membrane; settings: for Ki: read-out: Ki; on all read-outs here: in other assays of this panel Not Active means under 50% inhibition at 10 µM
Sequence of 5-hydroxytryptamine receptor 1B (P28564 whole entry): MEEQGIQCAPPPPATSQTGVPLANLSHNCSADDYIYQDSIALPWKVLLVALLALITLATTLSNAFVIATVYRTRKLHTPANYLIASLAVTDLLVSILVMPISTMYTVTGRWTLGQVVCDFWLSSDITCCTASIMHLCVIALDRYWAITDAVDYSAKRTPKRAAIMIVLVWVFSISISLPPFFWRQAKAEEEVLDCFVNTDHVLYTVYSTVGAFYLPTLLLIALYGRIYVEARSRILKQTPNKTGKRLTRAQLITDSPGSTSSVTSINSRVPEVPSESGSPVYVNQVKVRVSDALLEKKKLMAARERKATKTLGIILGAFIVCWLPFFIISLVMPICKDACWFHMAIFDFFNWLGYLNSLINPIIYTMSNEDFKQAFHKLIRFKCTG

[3] = target: T3, C-X-C chemokine receptor type 2 (Homo sapiens, UniProt P25025); type: cell membranes, Membrane; settings: cho-k1; further: in other assays of this panel Not Active means under 50% inhibition at 10 µM
T3 sequence (P25025 whole entry): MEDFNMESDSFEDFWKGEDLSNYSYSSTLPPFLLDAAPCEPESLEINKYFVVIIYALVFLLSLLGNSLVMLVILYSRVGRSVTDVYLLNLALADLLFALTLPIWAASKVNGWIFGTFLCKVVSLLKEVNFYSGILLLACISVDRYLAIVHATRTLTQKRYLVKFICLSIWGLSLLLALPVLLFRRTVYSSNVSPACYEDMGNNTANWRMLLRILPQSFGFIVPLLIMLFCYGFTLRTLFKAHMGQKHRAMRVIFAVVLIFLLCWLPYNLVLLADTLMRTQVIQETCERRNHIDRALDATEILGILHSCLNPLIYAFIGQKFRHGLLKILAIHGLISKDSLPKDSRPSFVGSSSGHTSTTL

[4] = target: Delta-type opioid receptor (Homo sapiens, UniProt P41143); type: cell membranes, HEK293, Membrane; settings: hek293; further: in other assays of this panel Not Active means under 50% inhibition at 10 µM
Sequence of Delta-type opioid receptor (P41143 whole entry): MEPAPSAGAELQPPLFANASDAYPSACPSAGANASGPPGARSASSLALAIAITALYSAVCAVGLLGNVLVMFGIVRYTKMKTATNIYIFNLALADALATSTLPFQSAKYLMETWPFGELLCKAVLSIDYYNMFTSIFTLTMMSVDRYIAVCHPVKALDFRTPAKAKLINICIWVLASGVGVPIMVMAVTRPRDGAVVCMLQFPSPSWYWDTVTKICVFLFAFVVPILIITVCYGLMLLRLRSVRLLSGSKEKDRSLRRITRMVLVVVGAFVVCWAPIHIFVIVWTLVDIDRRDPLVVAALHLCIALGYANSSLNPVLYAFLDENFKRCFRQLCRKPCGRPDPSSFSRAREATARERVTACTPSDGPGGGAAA

| SMILES | IC50 (D(4) dopamine receptor; cho-k1) | IC50 [1] | IC50 (Cytochrome P450 2C9) | Ki (Cytochrome P450 2C9) | IC50 (Glycine receptor) | IC50 [2] | IC50 [3] | IC50 [4] | IC50 ([2]; read-out: IC50) | Ki [2] | IC50 (D(4) dopamine receptor; read-out: IC50) | Ki (D(4) dopamine receptor; read-out: Ki) |
| --- | --- | --- | --- | --- | --- | --- | --- | --- | --- | --- | --- | --- |
| N[C@@H](Cc1ccc(N(CCCl)CCCl)cc1)C(=O)O | Not Active | Not Active | Not Active | Not Active | Not Active | Not Active | Not Active | Not Active |  |  |  |  |
| CC(C)N1CCN(c2ccc(OCC3COC(Cn4cncn4)(c4ccc(Cl)cc4Cl)O3)cc2)CC1 (stereo not drawn) [TERCONAZOLE] | Not Active | Not Active | Not Active | Not Active | Not Active |  | Not Active | Not Active | 89.9 µM | 40.9 µM |  |  |
| Cc1nc2n(c(=O)c1CCN1CCC(c3noc4cc(F)ccc34)CC1)CCCC2 [RISPERIDONE] | Not Active | Not Active | Not Active | Not Active | Not Active | Not Active | Not Active | Not Active |  |  |  |  |
| N[C@@H]1[C@H]2CN(c3nc4c(cc3F)c(=O)c(C(=O)O)cn4-c3ccc(F)cc3F)C[C@@H]12 [TROVAFLOXACIN] | Not Active | Not Active | Not Active | Not Active | Not Active | Not Active | Not Active | Not Active |  |  |  |  |
| O=c1ncn2nc(Sc3ccc(F)cc3F)ccc2c1-c1c(Cl)cccc1Cl [NEFLAMAPIMOD] | Not Active | Not Active | Not Active | Not Active | Not Active | Not Active | Not Active | Not Active |  |  |  |  |
| CCCCc1oc2ccccc2c1C(=O)c1cc(I)c(OCCN(CC)CC)c(I)c1 [AMIODARONE] |  | Not Active |  |  | Not Active |  | Not Active |  | 86.2 µM | 39.2 µM | 17.7 µM | 6.21 µM |
| CC[C@]1(O)C[C@H]2CN(CCc3c([nH]c4ccccc34)[C@@](C(=O)OC)(c3cc4c(cc3OC)N(C=O)[C@H]3[C@@](O)(C(=O)OC)[C@H](OC(C)=O)[C@]5(CC)C=CCN6CC[C@]43[C@@H]65)C2)C1 [VINCRISTINE] | Not Active | Not Active | Not Active | Not Active | Not Active | Not Active | Not Active | Not Active |  |  |  |  |
| CO[C@H]1/C=C/O[C@@]2(C)Oc3c(C)c(O)c4c(O)c(c(/C=N/N5CCN(C)CC5)c(O)c4c3C2=O)NC(=O)/C(C)=C\C=C\[C@H](C)[C@H](O)[C@@H](C)[C@@H](O)[C@@H](C)[C@H](OC(C)=O)[C@@H]1C [RIFAMPIN] | Not Active | Not Active |  |  | Not Active | Not Active | Not Active | Not Active |  |  |  |  |
| Cc1noc(NS(=O)(=O)c2ccc(N)cc2)c1C [SULFISOXAZOLE] | Not Active | Not Active | Not Active | Not Active | Not Active | Not Active | Not Active | Not Active |  |  |  |  |
| NS(=O)(=O)c1cc2c(cc1Cl)NC(C(Cl)Cl)NS2(=O)=O (stereo not drawn) [TRICHLORMETHIAZIDE] | Not Active | Not Active | Not Active | Not Active | Not Active | Not Active | Not Active | Not Active |  |  |  |  |
| COc1nc(C)nc(Cl)c1NC1=NCCN1 [MOXONIDINE] | Not Active | Not Active | Not Active | Not Active | Not Active | Not Active | Not Active | Not Active |  |  |  |  |
| Nc1nc2ccc(OC(F)(F)F)cc2s1 [RILUZOLE] | Not Active | Not Active |  |  | Not Active | Not Active | Not Active | Not Active |  |  |  |  |
| N[C@@H](Cc1cc(I)c(Oc2ccc(O)c(I)c2)c(I)c1)C(=O)O [LIOTHYRONINE] | Not Active | Not Active |  |  | Not Active | Not Active | Not Active | Not Active |  |  |  |  |
